Assay results from ChEMBL document CHEMBL5465560, “Selectivity Literature for EUbOPEN Chemogenomic Library” (2024).
Residue numbers refer to the chain shown, from its start.

How the values were obtained:
Conditions in all cases: at 1 µM
[1] = target: Receptor-type tyrosine-protein kinase FLT3 (Homo sapiens) (UniProt P36888); experiment: (§1) Selectivity interaction (KinomeScan (DiscoverX)) EUB0001049a FLT3
[2] = test system: T1, Receptor-type tyrosine-protein kinase FLT3 (Homo sapiens), P36888 [R834Q]; experiment: as §1
T1 sequence (whole entry): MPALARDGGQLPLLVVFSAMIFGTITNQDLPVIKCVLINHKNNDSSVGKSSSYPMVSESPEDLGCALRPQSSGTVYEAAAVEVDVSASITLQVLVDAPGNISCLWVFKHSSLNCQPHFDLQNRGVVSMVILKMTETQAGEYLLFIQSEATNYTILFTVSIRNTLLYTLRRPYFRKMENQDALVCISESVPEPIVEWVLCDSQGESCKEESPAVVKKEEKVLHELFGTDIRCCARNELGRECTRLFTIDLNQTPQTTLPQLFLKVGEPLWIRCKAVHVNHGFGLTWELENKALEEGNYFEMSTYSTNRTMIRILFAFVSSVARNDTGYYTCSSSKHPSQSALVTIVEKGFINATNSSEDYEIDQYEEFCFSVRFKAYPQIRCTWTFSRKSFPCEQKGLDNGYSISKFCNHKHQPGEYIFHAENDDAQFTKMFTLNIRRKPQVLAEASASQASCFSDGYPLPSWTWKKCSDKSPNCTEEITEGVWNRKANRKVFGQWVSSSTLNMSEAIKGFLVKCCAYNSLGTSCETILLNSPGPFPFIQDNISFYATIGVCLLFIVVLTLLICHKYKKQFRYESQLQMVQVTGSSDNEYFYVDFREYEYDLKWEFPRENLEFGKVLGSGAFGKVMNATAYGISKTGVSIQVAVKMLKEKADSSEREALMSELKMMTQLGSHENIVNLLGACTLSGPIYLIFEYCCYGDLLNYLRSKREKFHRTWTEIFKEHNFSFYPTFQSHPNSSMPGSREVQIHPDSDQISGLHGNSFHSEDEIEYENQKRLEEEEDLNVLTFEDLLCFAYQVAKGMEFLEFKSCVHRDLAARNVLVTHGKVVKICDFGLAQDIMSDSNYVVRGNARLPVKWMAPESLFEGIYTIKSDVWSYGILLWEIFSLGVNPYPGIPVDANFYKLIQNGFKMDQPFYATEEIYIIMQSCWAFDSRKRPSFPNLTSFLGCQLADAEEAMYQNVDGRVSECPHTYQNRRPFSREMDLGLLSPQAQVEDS

[3] = test system: T2, Receptor-type tyrosine-protein kinase FLT3 (Homo sapiens), P36888 [D835V]; experiment: as §1
T2 sequence (whole entry): T1 sequence (whole entry) with Q834R, D835V

[4] = test system: T3, Receptor-type tyrosine-protein kinase FLT3 (Homo sapiens), P36888 [D835Y]; experiment: as §1
T3 sequence (whole entry): T1 sequence (whole entry) with Q834R, D835Y

Structure (SMILES): COc1cc(Nc2nc(C)cc(-c3cnn4nc(OC)ccc34)n2)cc(C(F)(F)F)c1
- % of control [1]: 100%
- % of control [2]: 100%
- % of control [3]: 86%
- % of control [4]: 79%
